Reference: patent publication US20260157984A1, “CERAMIDE COMPOSITION” (GENUINE R&D CO., LTD., priority 2021, published 2026)

System: HaCaT cells
Assay: Measurement of mitochondrial activity by IN Cell Analyzer 2200 in HaCaT cells
Format: cell-based, human
Details: HaCaT cells treated with ceramides 48 hours, 5 μM, FIG. 1
Protocol: A human epidermal keratinocyte cell line, i.e., HaCaT cells, was used as a human skin cell model. The cells were subcultured in a cell culture dish (Greiner Bio-One Co., Ltd., Tokyo, Japan) at 37° C. in the presence of 5% CO2 by using DMEM medium (Dulbecco's Modified Eagle Medium, Nissui, Tokyo, Japan) containing 10% inactivated fetal bovine serum (FBS, Life Technologies Corporation, CA, USA). […]
HaCaT cells were seeded in a 96-well plate at a density of 6.0×10^4 cells/mL and precultured for 24 hours. […] Thereafter, the diluted Hoechst […] solution was removed from the 96-well plate, […] of PBS was added, and the fluorescence was detected using an IN Cell Analyzer 2200 (GE Healthcare). By measuring the amounts of fluorescence of MitoTracker Red, MitoTracker Green, and Hoechst 33342, the mitochondrial activity, number, and area in the cells were examined. The images were analyzed using IN Cell Investigator High-content image analysis software (GE Healthcare).
The mitochondrial number and area (MitoTracker Green), as well as the mitochondrial membrane potential activity (MitoTracker Red), per cell were measured using an IN Cell Analyzer 2200 in HaCaT cells treated with ceramides for 48 hours.

Structure (SMILES): CCCCCCCCCCCCCCCCCC(=O)N[C@@H](CO)[C@H](O)CCCCCCCCCCCCCCC [synthetic ceramide, ceramide NG]
- mitochondrial number per cell (MitoTracker Green): significantly increased
